Assay results published in publication PMC4620497 (Scientific Reports, 2015).

Legend:
CHEK1 = biological target: T1, CHEK1 (Homo sapiens, UniProt O14757); design: method as in earlier work; settings: Table S1; cited from earlier work
T1 construct: purchased DiscoveRx KINOMEscan (Ambit Biosciences)
T1 sequence (O14757 1-476): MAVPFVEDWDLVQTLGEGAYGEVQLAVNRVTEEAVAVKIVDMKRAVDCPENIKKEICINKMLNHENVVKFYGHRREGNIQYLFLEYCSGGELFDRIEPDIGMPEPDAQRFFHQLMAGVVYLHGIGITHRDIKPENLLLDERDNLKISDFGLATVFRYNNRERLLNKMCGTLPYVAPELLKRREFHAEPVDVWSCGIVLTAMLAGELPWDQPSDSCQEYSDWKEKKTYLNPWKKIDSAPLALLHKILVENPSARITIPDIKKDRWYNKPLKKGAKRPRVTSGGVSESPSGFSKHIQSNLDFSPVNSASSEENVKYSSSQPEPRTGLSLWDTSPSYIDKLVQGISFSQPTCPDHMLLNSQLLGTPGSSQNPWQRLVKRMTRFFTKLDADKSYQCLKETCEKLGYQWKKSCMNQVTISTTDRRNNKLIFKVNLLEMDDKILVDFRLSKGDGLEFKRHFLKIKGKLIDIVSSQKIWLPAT

TRKB = biological target: T2, TRKB (Homo sapiens, UniProt Q16620); test: KINOMEscan panel screen; format: binding; settings: read-out: Percent Control(%)
T2 construct: purchased DiscoveRx KINOMEscan (Ambit Biosciences)

TEC = biological target: T3, TEC (Homo sapiens, UniProt P42680); test: KINOMEscan panel screen; format: binding; settings: read-out: Percent Control(%)
T3 construct: purchased DiscoveRx KINOMEscan (Ambit Biosciences)

KIT-autoinhibited = biological target: T4, KIT-autoinhibited (Homo sapiens, UniProt P10721); test: KINOMEscan panel screen; format: binding; settings: read-out: Percent Control(%)
T4 construct: purchased DiscoveRx KINOMEscan (Ambit Biosciences)

MARK1 = biological target: T5, MARK1 (Homo sapiens, UniProt Q9P0L2); test: KINOMEscan panel screen; format: binding; settings: read-out: Percent Control(%)
T5 construct: purchased DiscoveRx KINOMEscan (Ambit Biosciences)

[1] = biological target: T6, RPS6KA4(Kin.Dom.2-C-terminal) (Homo sapiens, UniProt O75676); test: KINOMEscan panel screen; format: binding; settings: read-out: Percent Control(%)
T6 construct: RPS6KA4(Kin.Dom.2-C-terminal); purchased DiscoveRx KINOMEscan (Ambit Biosciences)

SRPK3 = biological target: T7, SRPK3 (Homo sapiens, UniProt Q9UPE1); test: KINOMEscan panel screen; format: binding; settings: read-out: Percent Control(%)
T7 construct: purchased DiscoveRx KINOMEscan (Ambit Biosciences)
T7 sequence (Q9UPE1 whole entry): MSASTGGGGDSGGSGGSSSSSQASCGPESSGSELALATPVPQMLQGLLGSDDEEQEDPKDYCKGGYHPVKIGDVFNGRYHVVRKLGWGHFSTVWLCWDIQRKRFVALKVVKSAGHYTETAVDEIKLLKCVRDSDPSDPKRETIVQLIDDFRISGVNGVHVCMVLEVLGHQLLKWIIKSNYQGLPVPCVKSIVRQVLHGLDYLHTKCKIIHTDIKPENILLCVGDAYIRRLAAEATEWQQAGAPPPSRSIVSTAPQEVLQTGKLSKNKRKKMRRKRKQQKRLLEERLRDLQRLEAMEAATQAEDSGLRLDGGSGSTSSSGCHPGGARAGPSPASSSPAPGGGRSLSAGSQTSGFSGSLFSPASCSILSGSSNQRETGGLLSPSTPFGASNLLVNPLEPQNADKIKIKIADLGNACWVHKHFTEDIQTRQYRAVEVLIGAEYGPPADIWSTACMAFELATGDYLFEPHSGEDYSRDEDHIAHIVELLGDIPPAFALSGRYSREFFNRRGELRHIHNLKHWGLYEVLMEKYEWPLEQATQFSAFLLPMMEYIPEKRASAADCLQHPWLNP

MAP3K3 = biological target: T8, MAP3K3 (Homo sapiens, UniProt Q99759); test: KINOMEscan panel screen; format: binding; settings: read-out: Percent Control(%)
T8 construct: purchased DiscoveRx KINOMEscan (Ambit Biosciences)

p38-delta = biological target: T9, p38-delta (Homo sapiens, UniProt O15264); test: KINOMEscan panel screen; format: binding; settings: read-out: Percent Control(%)
T9 construct: purchased DiscoveRx KINOMEscan (Ambit Biosciences)

[2] = biological target: T10, RPS6KA5(Kin.Dom.1-N-terminal) (Homo sapiens, UniProt O75582); test: KINOMEscan panel screen; format: binding; settings: read-out: Percent Control(%)
T10 construct: RPS6KA5(Kin.Dom.1-N-terminal); purchased DiscoveRx KINOMEscan (Ambit Biosciences)

SLK = biological target: T11, SLK (Homo sapiens, UniProt Q9H2G2); test: KINOMEscan panel screen; format: binding; settings: read-out: Percent Control(%)
T11 construct: purchased DiscoveRx KINOMEscan (Ambit Biosciences)

CSNK2A2 = biological target: T12, CSNK2A2 (Homo sapiens, UniProt P19784); test: KINOMEscan panel screen; format: binding; settings: read-out: Percent Control(%)
T12 construct: purchased DiscoveRx KINOMEscan (Ambit Biosciences)
T12 sequence (P19784 whole entry): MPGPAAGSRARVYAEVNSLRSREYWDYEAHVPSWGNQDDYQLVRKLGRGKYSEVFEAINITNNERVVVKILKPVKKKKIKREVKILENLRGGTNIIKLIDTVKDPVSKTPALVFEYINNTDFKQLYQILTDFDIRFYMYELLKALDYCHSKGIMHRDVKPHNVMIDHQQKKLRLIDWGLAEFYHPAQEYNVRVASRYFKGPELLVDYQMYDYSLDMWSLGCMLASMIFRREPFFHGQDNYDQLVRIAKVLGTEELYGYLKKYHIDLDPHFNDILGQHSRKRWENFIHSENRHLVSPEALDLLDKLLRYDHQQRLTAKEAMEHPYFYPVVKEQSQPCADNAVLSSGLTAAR

[3] = biological target: T13, ABL1(Q252H)-nonphosphorylated (Homo sapiens, UniProt P00519, Q252H); test: KINOMEscan panel screen; format: binding; settings: read-out: Percent Control(%)
T13 construct: purchased DiscoveRx KINOMEscan (Ambit Biosciences)

TIE1 = biological target: T14, TIE1 (Homo sapiens, UniProt P35590); test: KINOMEscan panel screen; format: binding; settings: read-out: Percent Control(%)
T14 construct: purchased DiscoveRx KINOMEscan (Ambit Biosciences)

MAP4K2 = biological target: T15, MAP4K2 (Homo sapiens, UniProt Q12851); test: KINOMEscan panel screen; format: binding; settings: read-out: Percent Control(%)
T15 construct: purchased DiscoveRx KINOMEscan (Ambit Biosciences)

ULK2 = biological target: T16, ULK2 (Homo sapiens, UniProt Q8IYT8); test: KINOMEscan panel screen; format: binding; settings: read-out: Percent Control(%)
T16 construct: purchased DiscoveRx KINOMEscan (Ambit Biosciences)

LTK = biological target: T17, LTK (Homo sapiens, UniProt P29376); test: KINOMEscan panel screen; format: binding; settings: read-out: Percent Control(%)
T17 construct: purchased DiscoveRx KINOMEscan (Ambit Biosciences)

ERK3 = biological target: T18, ERK3 (Homo sapiens, UniProt Q16659); test: KINOMEscan panel screen; format: binding; settings: read-out: Percent Control(%)
T18 construct: purchased DiscoveRx KINOMEscan (Ambit Biosciences)

CASK = biological target: T19, CASK (Homo sapiens, UniProt O14936); test: KINOMEscan panel screen; format: binding; settings: read-out: Percent Control(%)
T19 construct: purchased DiscoveRx KINOMEscan (Ambit Biosciences)

IGF1R = biological target: T20, IGF1R (Homo sapiens, UniProt P08069); test: KINOMEscan panel screen; format: binding; settings: read-out: Percent Control(%)
T20 construct: DNA tag (qPCR read-out); purchased Ambit Biosciences (KINOMEscan service)

MAP3K15 = biological target: T21, MAP3K15 (Homo sapiens, UniProt Q6ZN16); test: KINOMEscan panel screen; format: binding; settings: read-out: Percent Control(%)
T21 construct: purchased DiscoveRx KINOMEscan (Ambit Biosciences)
T21 sequence (Q6ZN16 whole entry): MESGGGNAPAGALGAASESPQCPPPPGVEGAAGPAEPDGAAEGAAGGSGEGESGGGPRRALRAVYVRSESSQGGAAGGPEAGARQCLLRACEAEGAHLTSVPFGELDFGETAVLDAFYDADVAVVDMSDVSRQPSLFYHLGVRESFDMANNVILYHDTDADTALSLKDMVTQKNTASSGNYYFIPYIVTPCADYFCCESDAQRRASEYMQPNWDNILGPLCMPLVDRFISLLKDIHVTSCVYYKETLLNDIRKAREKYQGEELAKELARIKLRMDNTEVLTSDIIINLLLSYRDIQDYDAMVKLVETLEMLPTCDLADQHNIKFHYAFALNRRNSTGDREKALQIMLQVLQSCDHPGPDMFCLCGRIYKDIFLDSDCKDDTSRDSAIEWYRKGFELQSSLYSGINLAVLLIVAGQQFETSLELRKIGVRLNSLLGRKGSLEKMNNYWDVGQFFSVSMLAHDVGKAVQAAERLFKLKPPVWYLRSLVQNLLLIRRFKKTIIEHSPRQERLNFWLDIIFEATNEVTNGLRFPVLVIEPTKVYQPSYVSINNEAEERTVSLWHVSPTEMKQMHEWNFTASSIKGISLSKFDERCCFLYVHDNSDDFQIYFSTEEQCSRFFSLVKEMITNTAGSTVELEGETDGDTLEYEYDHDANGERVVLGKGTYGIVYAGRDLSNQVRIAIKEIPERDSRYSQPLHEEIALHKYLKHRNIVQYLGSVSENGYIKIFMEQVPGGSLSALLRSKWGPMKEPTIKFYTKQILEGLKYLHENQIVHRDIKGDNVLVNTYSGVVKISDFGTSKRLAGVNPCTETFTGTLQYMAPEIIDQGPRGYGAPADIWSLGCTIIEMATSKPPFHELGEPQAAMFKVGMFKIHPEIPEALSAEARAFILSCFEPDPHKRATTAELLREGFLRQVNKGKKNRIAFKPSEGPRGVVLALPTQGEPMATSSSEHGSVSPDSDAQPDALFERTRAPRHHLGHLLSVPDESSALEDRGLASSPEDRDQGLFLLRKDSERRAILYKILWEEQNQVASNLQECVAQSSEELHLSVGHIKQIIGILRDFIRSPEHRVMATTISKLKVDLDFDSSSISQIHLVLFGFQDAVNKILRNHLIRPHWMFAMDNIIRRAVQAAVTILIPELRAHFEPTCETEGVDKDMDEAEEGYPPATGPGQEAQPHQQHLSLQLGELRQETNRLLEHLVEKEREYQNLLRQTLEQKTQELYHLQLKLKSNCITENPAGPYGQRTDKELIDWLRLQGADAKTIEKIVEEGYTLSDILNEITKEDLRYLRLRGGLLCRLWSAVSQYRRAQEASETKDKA

DCAMKL2 = biological target: T22, DCAMKL2 (Homo sapiens, UniProt Q8N568); test: KINOMEscan panel screen; format: binding; settings: read-out: Percent Control(%)
T22 construct: purchased DiscoveRx KINOMEscan (Ambit Biosciences)
T22 sequence (Q8N568 whole entry): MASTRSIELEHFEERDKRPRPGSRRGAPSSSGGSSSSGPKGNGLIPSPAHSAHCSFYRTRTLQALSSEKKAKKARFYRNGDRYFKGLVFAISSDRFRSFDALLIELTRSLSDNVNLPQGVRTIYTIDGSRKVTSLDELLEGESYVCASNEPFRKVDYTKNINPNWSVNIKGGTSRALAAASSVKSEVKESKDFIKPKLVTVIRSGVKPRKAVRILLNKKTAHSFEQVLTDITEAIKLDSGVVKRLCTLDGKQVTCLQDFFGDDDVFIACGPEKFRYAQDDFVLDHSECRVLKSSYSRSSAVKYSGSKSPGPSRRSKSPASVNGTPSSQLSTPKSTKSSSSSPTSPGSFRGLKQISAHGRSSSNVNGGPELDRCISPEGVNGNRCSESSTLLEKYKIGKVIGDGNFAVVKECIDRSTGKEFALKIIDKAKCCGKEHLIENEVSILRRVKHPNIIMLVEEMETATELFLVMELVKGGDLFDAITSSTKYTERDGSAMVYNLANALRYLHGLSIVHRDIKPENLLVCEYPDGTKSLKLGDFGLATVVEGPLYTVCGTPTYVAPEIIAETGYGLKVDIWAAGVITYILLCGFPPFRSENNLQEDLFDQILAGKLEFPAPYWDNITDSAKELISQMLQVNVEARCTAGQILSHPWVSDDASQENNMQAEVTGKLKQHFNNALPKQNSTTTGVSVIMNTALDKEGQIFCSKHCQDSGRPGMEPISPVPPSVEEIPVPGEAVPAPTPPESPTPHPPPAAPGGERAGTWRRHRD

ARK5 = biological target: T23, ARK5 (Homo sapiens, UniProt O60285); test: KINOMEscan panel screen; format: binding; settings: read-out: Percent Control(%)
T23 construct: purchased DiscoveRx KINOMEscan (Ambit Biosciences)

ERBB3 = biological target: T24, ERBB3 (Homo sapiens, UniProt P21860); test: KINOMEscan panel screen; format: binding; settings: read-out: Percent Control(%)
T24 construct: purchased DiscoveRx KINOMEscan (Ambit Biosciences)
T24 sequence (P21860 20-1342): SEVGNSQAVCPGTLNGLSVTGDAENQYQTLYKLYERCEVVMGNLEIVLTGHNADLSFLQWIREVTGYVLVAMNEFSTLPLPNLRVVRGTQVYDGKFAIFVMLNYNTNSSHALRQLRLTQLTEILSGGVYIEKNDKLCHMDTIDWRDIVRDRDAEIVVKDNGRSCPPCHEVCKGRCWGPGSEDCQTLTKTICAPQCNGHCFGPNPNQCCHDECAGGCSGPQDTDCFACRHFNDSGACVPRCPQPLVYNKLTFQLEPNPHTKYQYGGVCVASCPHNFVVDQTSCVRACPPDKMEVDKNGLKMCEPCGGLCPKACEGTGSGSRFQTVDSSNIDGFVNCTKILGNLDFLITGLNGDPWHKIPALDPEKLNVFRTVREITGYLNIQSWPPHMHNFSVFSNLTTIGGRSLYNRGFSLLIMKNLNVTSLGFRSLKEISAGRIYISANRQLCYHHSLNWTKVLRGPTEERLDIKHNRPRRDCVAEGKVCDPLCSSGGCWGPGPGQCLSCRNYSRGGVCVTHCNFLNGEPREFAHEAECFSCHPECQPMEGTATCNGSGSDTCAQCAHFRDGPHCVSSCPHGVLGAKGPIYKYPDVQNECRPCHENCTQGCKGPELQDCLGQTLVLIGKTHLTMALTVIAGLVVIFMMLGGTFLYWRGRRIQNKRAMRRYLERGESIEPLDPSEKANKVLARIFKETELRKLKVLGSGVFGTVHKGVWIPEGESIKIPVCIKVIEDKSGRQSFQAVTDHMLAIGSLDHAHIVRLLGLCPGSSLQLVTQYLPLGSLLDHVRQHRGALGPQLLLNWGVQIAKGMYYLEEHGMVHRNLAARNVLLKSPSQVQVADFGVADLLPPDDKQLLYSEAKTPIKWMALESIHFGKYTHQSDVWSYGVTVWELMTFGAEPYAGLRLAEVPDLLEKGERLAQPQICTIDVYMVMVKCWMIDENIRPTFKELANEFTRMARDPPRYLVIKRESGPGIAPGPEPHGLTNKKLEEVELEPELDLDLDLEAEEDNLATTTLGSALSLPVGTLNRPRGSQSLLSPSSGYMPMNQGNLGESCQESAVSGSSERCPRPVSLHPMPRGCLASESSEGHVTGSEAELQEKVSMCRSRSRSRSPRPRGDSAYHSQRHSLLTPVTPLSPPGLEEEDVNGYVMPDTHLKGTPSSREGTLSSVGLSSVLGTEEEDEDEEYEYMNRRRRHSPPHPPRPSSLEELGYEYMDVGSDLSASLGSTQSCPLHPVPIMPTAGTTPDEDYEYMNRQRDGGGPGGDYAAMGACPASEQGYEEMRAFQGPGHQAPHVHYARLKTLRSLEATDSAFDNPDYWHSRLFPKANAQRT

H358 = test: MTT cell viability assay; settings: Homo sapiens, NCI-H358, 72 h
WNK1 = biological target: T25, WNK1 (Homo sapiens, UniProt Q9H4A3); test: KINOMEscan panel screen; format: binding; settings: read-out: Percent Control(%)
T25 construct: purchased DiscoveRx KINOMEscan (Ambit Biosciences)

TYRO3 = biological target: T26, TYRO3 (Homo sapiens, UniProt Q06418); test: KINOMEscan panel screen; format: binding; settings: read-out: Percent Control(%)
T26 construct: purchased DiscoveRx KINOMEscan (Ambit Biosciences)

PIK3CA(Q546K) = biological target: T27, PIK3CA(Q546K) (Homo sapiens, UniProt P42336, Q546K); test: KINOMEscan panel screen; format: binding; settings: read-out: Percent Control(%)
T27 construct: purchased DiscoveRx KINOMEscan (Ambit Biosciences)

FGFR4 = biological target: T28, FGFR4 (Homo sapiens, UniProt P22455); test: KINOMEscan panel screen; format: binding; settings: read-out: Percent Control(%)
T28 construct: purchased DiscoveRx KINOMEscan (Ambit Biosciences)
T28 sequence (P22455 22-802): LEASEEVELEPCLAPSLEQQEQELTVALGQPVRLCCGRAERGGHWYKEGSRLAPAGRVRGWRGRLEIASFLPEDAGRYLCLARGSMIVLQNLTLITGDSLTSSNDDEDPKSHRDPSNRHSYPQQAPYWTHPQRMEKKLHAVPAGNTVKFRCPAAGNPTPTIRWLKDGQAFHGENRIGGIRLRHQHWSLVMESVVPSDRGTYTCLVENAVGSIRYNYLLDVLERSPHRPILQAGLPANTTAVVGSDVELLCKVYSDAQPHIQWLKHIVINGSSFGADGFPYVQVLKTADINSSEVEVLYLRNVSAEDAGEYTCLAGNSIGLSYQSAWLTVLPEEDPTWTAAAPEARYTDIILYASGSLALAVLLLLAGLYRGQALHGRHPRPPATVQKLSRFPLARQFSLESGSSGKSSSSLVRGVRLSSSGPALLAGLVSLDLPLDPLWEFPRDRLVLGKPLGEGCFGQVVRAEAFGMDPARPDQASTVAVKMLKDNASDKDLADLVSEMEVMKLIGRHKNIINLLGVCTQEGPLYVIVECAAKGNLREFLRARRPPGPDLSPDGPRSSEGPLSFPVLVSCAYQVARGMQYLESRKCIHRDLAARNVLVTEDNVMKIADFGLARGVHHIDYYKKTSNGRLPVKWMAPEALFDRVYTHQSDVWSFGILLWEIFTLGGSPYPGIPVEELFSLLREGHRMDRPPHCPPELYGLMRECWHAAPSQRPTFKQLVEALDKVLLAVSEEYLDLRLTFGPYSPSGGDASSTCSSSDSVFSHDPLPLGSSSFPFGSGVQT

TAOK2 = biological target: T29, TAOK2 (Homo sapiens, UniProt Q9UL54); test: KINOMEscan panel screen; format: binding; settings: read-out: Percent Control(%)
T29 construct: purchased DiscoveRx KINOMEscan (Ambit Biosciences)

MRCKB = biological target: T30, MRCKB (Homo sapiens, UniProt Q9Y5S2); test: KINOMEscan panel screen; format: binding; settings: read-out: Percent Control(%)
T30 construct: purchased DiscoveRx KINOMEscan (Ambit Biosciences)

EPHA1 = biological target: T31, EPHA1 (Homo sapiens, UniProt P21709); test: KINOMEscan panel screen; format: binding; settings: read-out: Percent Control(%)
T31 construct: purchased DiscoveRx KINOMEscan (Ambit Biosciences)

IKK-epsilon = biological target: T32, IKK-epsilon (Homo sapiens, UniProt Q14164); test: KINOMEscan panel screen; format: binding; settings: read-out: Percent Control(%)
T32 construct: purchased DiscoveRx KINOMEscan (Ambit Biosciences)

PLK3 = biological target: T33, PLK3 (Homo sapiens, UniProt Q9H4B4); test: KINOMEscan panel screen; format: binding; settings: read-out: Percent Control(%)
T33 construct: purchased DiscoveRx KINOMEscan (Ambit Biosciences)

Compound: O=C(Nc1ccc(Oc2ncnc3[nH]ncc23)cc1)Nc1ccc(Cl)c(C(F)(F)F)c1 [Compound 1, 1-(4-(1H-pyrazolo[3,4-d]pyrimidin-4-yloxy)phenyl)-3-(4-chloro-3-(trifluoromethyl)phenyl)urea]
- IC50 (CHEK1): > 10 µM

Compound: CC(C)(C)c1cc(NC(=O)Nc2ccc(Oc3ncnc4[nH]ncc34)c(F)c2)no1 [SKLB-677, 1-(4-(1H-pyrazolo[3,4-d]pyrimidin-4-yloxy)-3-fluorophenyl)-3-(5-tert-butylisoxazol-3-yl)urea]
- remaining binding at 10 µM (TRKB): 0.05%
- remaining binding at 10 µM (TEC): 100%
- remaining binding at 10 µM (KIT-autoinhibited): 1.1%
- remaining binding at 10 µM (MARK1): 78%
- remaining binding at 10 µM [1]: 78%
- remaining binding at 10 µM (SRPK3): 71%
- remaining binding at 10 µM (MAP3K3): 100%
- remaining binding at 10 µM (p38-delta): 10%
- remaining binding at 10 µM [2]: 66%
- remaining binding at 10 µM (SLK): 0.2%
- remaining binding at 10 µM (CSNK2A2): 71%
- remaining binding at 10 µM [3]: 5.2%
- remaining binding at 10 µM (TIE1): 8.7%
- remaining binding at 10 µM (MAP4K2): 28%
- remaining binding at 10 µM (ULK2): 97%
- remaining binding at 10 µM (LTK): 1.2%
- remaining binding at 10 µM (ERK3): 79%
- remaining binding at 10 µM (CASK): 59%
- remaining binding at 10 µM (IGF1R): 70%
- remaining binding at 10 µM (MAP3K15): 100%
- remaining binding at 10 µM (DCAMKL2): 100%
- remaining binding at 10 µM (ARK5): 47%
- remaining binding at 10 µM (ERBB3): 98%
- IC50 (H358): 8 µM
- remaining binding at 10 µM (WNK1): 100%
- remaining binding at 10 µM (TYRO3): 0.35%
- remaining binding at 10 µM (PIK3CA(Q546K)): 100%
- remaining binding at 10 µM (FGFR4): 4.8%
- remaining binding at 10 µM (TAOK2): 0.35%
- remaining binding at 10 µM (MRCKB): 90%
- remaining binding at 10 µM (EPHA1): 9.2%
- remaining binding at 10 µM (IKK-epsilon): 55%
- remaining binding at 10 µM (PLK3): 100%
